The source made the active and inactive calls. No cut-off for these calls is given here.
Assays:
[1] = target: T1, Tyrosine-protein phosphatase non-receptor type 1 (Homo sapiens) (UniProt P18031); assay: Inhibition of recombinant human PTP-1B expressed in Escherichia coli TB1 at 50 uM using p-nitrophenyl phosphate as substrate
T1 sequence (whole entry): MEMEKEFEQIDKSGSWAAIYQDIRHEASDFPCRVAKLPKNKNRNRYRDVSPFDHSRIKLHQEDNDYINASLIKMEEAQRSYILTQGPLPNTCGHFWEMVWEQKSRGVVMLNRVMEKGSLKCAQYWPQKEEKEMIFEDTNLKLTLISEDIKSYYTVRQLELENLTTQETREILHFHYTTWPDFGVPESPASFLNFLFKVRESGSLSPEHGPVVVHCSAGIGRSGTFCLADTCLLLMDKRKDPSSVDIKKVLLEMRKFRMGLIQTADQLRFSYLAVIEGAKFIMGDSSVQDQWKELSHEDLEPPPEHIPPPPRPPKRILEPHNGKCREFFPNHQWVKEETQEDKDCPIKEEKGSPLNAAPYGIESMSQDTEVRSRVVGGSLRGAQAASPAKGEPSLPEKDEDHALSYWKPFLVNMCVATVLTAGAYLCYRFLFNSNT

[2] = target: T2, Tyrosine-protein phosphatase non-receptor type 1 (Homo sapiens, UniProt P18031); assay: Inhibition of recombinant human PTP-1B expressed in Escherichia coli TB1 using p-nitrophenyl phosphate as substrate
T2 sequence (P18031 whole entry): T1 sequence (whole entry)

[3] = target: T1, Tyrosine-protein phosphatase non-receptor type 1 (Homo sapiens); assay: Reversible inhibition of recombinant human PTP-1B expressed in Escherichia coli TB1 at 10 times IC50 using p-nitrophenyl phosphate as substrate preincubated for 90 mins followed by 400 fold dilution
Rattus norvegicus [4] = assay: Antidiabetic activity in non insulin dependent streptozotocin/nicotinamide-induced diabetic Wistar rat model assessed as decrease in blood glucose levels at 50 mg/kg, ig administered as single dose measured after 3 hrs by glucometer; assay type: functional, organism-based
[5] = target: T3, Low molecular weight phosphotyrosine protein phosphatase (Homo sapiens, UniProt P24666); assay: Inhibition of recombinant human LMW-PTP isoform 2 expressed in Escherichia coli TB1
T3 sequence (P24666 whole entry): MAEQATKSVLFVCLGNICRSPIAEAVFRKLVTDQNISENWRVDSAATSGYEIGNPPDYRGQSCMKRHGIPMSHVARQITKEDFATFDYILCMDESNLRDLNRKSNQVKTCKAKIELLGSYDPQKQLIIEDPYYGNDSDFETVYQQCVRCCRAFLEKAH

[6] = target: T2, Tyrosine-protein phosphatase non-receptor type 1; assay: Competitive inhibition of recombinant human PTP-1B expressed in Escherichia coli TB1 using p-nitrophenyl phosphate as substrate by Lineweaver-Burk plot analysis
[7] = target: T3, Low molecular weight phosphotyrosine protein phosphatase; assay: Inhibition of recombinant human LMW-PTP isoform 1 expressed in Escherichia coli TB1
Rattus norvegicus [8] = assay: Antidiabetic activity in non insulin dependent streptozotocin/nicotinamide-induced diabetic Wistar rat model assessed as decrease in blood glucose levels at 50 mg/kg, ig administered as single dose measured after 7 hrs by glucometer; assay type: functional; set-up: scale not given: the % may be the effect or the level left
[9] = target: T4, Tyrosine-protein phosphatase non-receptor type 2 (Homo sapiens, UniProt P17706); assay: Inhibition of recombinant human TC-PTP expressed in Escherichia coli TB1
T4 sequence (P17706 whole entry): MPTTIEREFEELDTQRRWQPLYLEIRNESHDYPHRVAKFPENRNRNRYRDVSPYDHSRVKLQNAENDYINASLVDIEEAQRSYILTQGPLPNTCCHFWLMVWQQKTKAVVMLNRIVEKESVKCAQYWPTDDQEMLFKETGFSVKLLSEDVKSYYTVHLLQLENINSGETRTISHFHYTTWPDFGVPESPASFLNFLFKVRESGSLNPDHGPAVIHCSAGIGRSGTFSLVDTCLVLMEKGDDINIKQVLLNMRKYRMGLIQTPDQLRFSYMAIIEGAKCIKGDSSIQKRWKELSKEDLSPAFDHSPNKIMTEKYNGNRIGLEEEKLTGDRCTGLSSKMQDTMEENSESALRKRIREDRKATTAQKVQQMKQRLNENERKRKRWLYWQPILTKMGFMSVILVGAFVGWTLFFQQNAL

[10] = Solubility of compound in DMSO; assay type: physicochemical
Homo sapiens [11] = species: Homo sapiens; assay: Selectivity ratio of IC50 for recombinant human LMW-PTP isoform 1expressed in Escherichia coli TB1 to IC50 for recombinant human PTP-1B expressed in Escherichia coli TB1
Homo sapiens [12] = species: Homo sapiens; assay: Selectivity ratio of IC50 for recombinant human LMW-PTP isoform 2 expressed in Escherichia coli TB1 to IC50 for recombinant human PTP-1B expressed in Escherichia coli TB1
[13] = target: T1, Tyrosine-protein phosphatase non-receptor type 1 (Homo sapiens); assay: Partial reversible inhibition of recombinant human PTP-1B expressed in Escherichia coli TB1 at 10 times IC50 using p-nitrophenyl phosphate as substrate preincubated for 90 mins followed by 400 fold dilution

For `COC(=O)[C@]12CCC(C)(C)C=C1[C@H]1CC[C@@H]3[C@@]4(C)CCC(=O)C(C)(C)[C@@H]4CC[C@@]3(C)[C@]1(C)CC2`, the inhibition [1] was 100%, the IC50 [2] was 10.8 µM and the inhibition [3] was “Active”. For the same compound, the Activity (Rattus norvegicus [4]) was “Active”, the IC50 [5] was 62.5 µM and the Ki [6] was 3.1 µM. For the same compound, the IC50 [7] was 33.7 µM, the Activity (Rattus norvegicus [8]) was 40% and the IC50 [9] was over 100 µM.

For `CC1(C)CC[C@]2(O)CC[C@]3(C)[C@H](CC[C@@H]4[C@@]5(C)CCC(=O)OC(C)(C)[C@@H]5CC[C@]43C)C23OC13` (stereo partly specified), the inhibition [1] was “Active”.

`CC1(C)C=C2[C@H]3CC[C@@H]4[C@@]5(C)CCC6(OCCO6)C(C)(C)[C@@H]5CC[C@@]4(C)[C@]3(C)CC[C@@]2(CO)CC1` showed an inhibition [1] of 100%, an IC50 [2] of 7.5 µM and an IC50 [5] of 29.3 µM. For the same compound, the solubility [10] was “soluble”, the Ratio IC50 (Homo sapiens [11]) was 2 and the IC50 [7] was 16.1 µM. The Ratio IC50 (Homo sapiens [12]) was 4, the inhibition [13] was “Active” and the IC50 [9] was over 100 µM.

For `CCOC(=O)[C@]12CCC(C)(C)C=C1[C@H]1CC[C@@H]3[C@@]4(C)CCC(=O)C(C)(C)[C@@H]4CC[C@@]3(C)[C@]1(C)CC2`, the inhibition [1] was “Active”.

In the case of `CC1(C)C=C2[C@H]3CC[C@@H]4[C@@]5(C)CCC(=O)C(C)(C)[C@@H]5CC[C@@]4(C)[C@]3(C)CC[C@@]2(C(=O)NC2CCCCC2)CC1`, the inhibition [1] is reported as “Active”.

Source: ChEMBL document CHEMBL3784954, “In vitro and in silico PTP-1B inhibition and in vivo antidiabetic activity of semisynthetic moronic acid derivatives” (Bioorg Med Chem Lett, 2016)
